Source: BigSolDB 2.1

CCOc1cccc(C=O)c1O
solubility (mole fraction)
Conditions | 278.15 K | 283.15 K | 288.15 K | 293.15 K | 298.15 K | 303.15 K | 308.15 K | 313.15 K
in acetone | 0.155 | 0.217 | 0.272 | 0.325 | 0.384 | 0.446 | 0.523 | 0.605
in acetonitrile | 0.104 | 0.154 | 0.206 | 0.254 | 0.303 | 0.352 | 0.415 | 0.498
in ethanol | 0.0153 | 0.0195 | 0.0287 | 0.0433 | 0.0662 | 0.102 | 0.145 | 0.214
in ethyl acetate | 0.134 | 0.174 | 0.209 | 0.25 | 0.294 | 0.344 | 0.403 | 0.497
in isopropanol | 0.0095 | 0.0143 | 0.0197 | 0.0284 | 0.0437 | 0.0642 | 0.0925 | 0.151
in methanol | 0.0196 | 0.0355 | 0.0567 | 0.0786 | 0.132 | 0.211 | 0.304 | 0.434
in methyl acetate | 0.137 | 0.185 | 0.227 | 0.281 | 0.335 | 0.388 | 0.475 | 0.563
in n-butanol | 0.0163 | 0.0206 | 0.0287 | 0.0398 | 0.0566 | 0.0795 | 0.116 | 0.164
in n-butyl acetate | 0.0985 | 0.125 | 0.158 | 0.188 | 0.237 | 0.281 | 0.334 | 0.409
in n-propanol | 0.0145 | 0.0198 | 0.0262 | 0.0395 | 0.0576 | 0.0824 | 0.124 | 0.176
in n-propyl acetate | 0.105 | 0.136 | 0.164 | 0.205 | 0.248 | 0.312 | 0.374 | 0.464
in water | 5.24e-05 | 6.55e-05 | 7.32e-05 | 8.68e-05 | 0.000106 | 0.000125 | 0.000155 | 0.000191
